In patent US9193695B2, “1, 2, 4-triazolone derivative and use thereof as an antagonist on the arginine-vasopressin 1B receptor” (TAISHO PHARMACEUTICAL CO., LTD., priority 2010, dated 2015):
Structures can show the parent of a compound that is named as a salt.

biological target: T1, Human V1b receptor (Homo sapiens, UniProt P47901); assay: Binding test for V1b receptor ([3H]AVP displacement, crude membrane preparation); design: expressed in transfected cells; host or cells: 293FT cells (Invitrogen), transient expression; crude membrane preparation; conditions: [3H]AVP 0.4 to 1 nmol/L; membranes of 293FT cells transiently expressing human V1b receptor; room temperature, 60 minutes
T1 sequence (P47901 1-424): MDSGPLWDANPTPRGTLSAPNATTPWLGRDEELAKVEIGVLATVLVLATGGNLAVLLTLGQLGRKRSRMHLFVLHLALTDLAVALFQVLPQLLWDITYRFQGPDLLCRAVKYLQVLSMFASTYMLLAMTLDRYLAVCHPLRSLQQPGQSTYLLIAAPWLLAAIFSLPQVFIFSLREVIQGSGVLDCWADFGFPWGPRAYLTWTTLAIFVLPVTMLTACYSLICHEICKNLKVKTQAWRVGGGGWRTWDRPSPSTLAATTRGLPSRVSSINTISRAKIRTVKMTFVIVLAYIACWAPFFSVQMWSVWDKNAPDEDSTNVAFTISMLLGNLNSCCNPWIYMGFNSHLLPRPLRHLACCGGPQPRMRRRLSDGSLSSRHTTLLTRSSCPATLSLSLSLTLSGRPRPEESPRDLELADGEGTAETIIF
Experimental: Binding Test for V1b Receptor
Human V1b receptor was transiently expressed in 293FT cells (Invitrogen). The cells were collected and were homogenated in a 15 mmol/L tris-hydrochloric acid buffer (pH 7.4, containing 2 mmol/L magnesium chloride, 0.3 mmol/L ethylenediaminetetracetic acid, and 1 mmol/L glycol ether diaminetetraacetic acid). The resulting homogenate was centrifuged at 50,000×g at 4° C. for 20 minutes. The precipitate was resuspended in a 75 mmol/L tris-hydrochloric acid buffer (pH 7.4, containing 12.5 mmol/L magnesium chloride, 0.3 mmol/L ethylenediaminetetracetic acid, 1 mmol/L glycol ether diamine tetraacetic acid, and 250 mmol/L sucrose) to give a crude membrane preparation, which was stored at −80° C. until the binding test. In the binding test, the crude membrane preparation was diluted with a 50 mmol/L tris-hydrochloric acid buffer (pH 7.4, containing 10 mmol/L magnesium chloride and 0.1% bovine serum albumin), and test compound was serially diluted with DMSO. The diluted crude membrane preparation was incubated with each test compound (final concentration of 0.01 nmol/L to 1 μmol/L) and [^3H]AVP (final concentration: 0.4 to 1 nmol/L) at room temperature for 60 minutes. After the incubation, the mixture was suction filtered through a GF/C filter pretreated with 0.3% polyethyleneimine. The GF/C filter was dried, and a scintillator was added thereto. The radioactivity remaining on the filter was measured using TopCount (PerkinElmer Inc.). The radioactivity in the presence of 10 μmol/L of unlabeled AVP was defined as 0%, and the radioactivity in the absence of unlabeled AVP was defined as 100%. A dose-response curve was plotted from radioactivities in the presence of a test compound at various concentrations, and the 50% inhibitory concentration (IC50 value) of the compound was calculated.

IC50 | Structure (SMILES)
10 to 100 nM | COc1cc(-c2nn(-c3ccc(CCN4C[C@@H](C)O[C@@H](C)C4)cc3)c(=O)n2CC(=O)NC(C)C)ccc1F [Ca-20, 2-[1-(4-{2-[(2R,6S)-2,6-Dimethylmorpholin-4-yl]ethyl}phenyl)-3-(4-fluoro-3-methoxyphenyl)-5-oxo-1,5-dihydro-4H-1,2,4-triazol-4-yl]-N-(propan-2-yl)acetamide]
10 to 100 nM | COc1cc(-c2nn(-c3ccc(CCN4C(C)COCC4C)cc3)c(=O)n2CC(=O)NC(C)C)ccc1F (centres unmarked) [Ca-21, 2-[1-{4-[2-(3,5-Dimethylmorpholin-4-yl)ethyl]phenyl}-3-(4-fluoro-3-methoxyphenyl)-5-oxo-1,5-dihydro-4H-1,2,4-triazol-4-yl]-N-(propan-2-yl)acetamide trifluoroacetate]
10 to 100 nM | COc1cc(-c2nn(-c3ccc(CCN4CCOCC4C)cc3)c(=O)n2CC(=O)NC(C)C)ccc1F (centres unmarked) [Ca-22, 2-[3-(4-Fluoro-3-methoxyphenyl)-1-{4-[2-(3-methylmorpholin-4-yl)ethyl]phenyl}-5-oxo-1,5-dihydro-4H-1,2,4-triazol-4-yl]-N-(propan-2-yl)acetamide]
10 to 100 nM | CCC1COCCN1CCc1ccc(-n2nc(-c3ccc(F)c(OC)c3)n(CC(=O)NC(C)C)c2=O)cc1 (centres unmarked) [Ca-23, 2-[1-{4-[2-(3-Ethylmorpholin-4-yl)ethyl]phenyl}-3-(4-fluoro-3-methoxyphenyl)-5-oxo-1,5-dihydro-4H-1,2,4-triazol-4-yl]-N-(propan-2-yl)acetamide]
10 to 100 nM | COc1cc(-c2nn(-c3ccc(CCN4CCCC4)cc3)c(=O)n2CC(=O)NC(C)C)ccc1F [Ca-24, 2-[3-(4-Fluoro-3-methoxyphenyl)-5-oxo-1-{4-[2-(pyrrolidin-1-yl)ethyl]phenyl}-1,5-dihydro-4H-1,2,4-triazol-4-yl]-N-(propan-2-yl)acetamide formate]
100 to 1000 nM | COc1cc(-c2nn(-c3ccc(CCN4CCN(C)CC4)cc3)c(=O)n2CC(=O)NC(C)C)ccc1F [Ca-25, 2-[3-(4-Fluoro-3-methoxyphenyl)-1-{4-[2-(4-methylpiperazin-1-yl)ethyl]phenyl}-5-oxo-1,5-dihydro-4H-1,2,4-triazol-4-yl]-N-(propan-2-yl)acetamide trifluoroacetate]
100 to 1000 nM | COc1cc(-c2nn(-c3ccc(CCN4CCN(C(C)=O)CC4)cc3)c(=O)n2CC(=O)NC(C)C)ccc1F [Ca-26, 2-[1-{4-[2-(4-Acetylpiperazin-1-yl)ethyl]phenyl}-3-(4-fluoro-3-methoxyphenyl)-5-oxo-1,5-dihydro-4H-1,2,4-triazol-4-yl]-N-(propan-2-yl)acetamide trifluoroacetate]
100 to 1000 nM | COc1cc(-c2nn(-c3ccc(CCN4CCC(C)(O)CC4)cc3)c(=O)n2CC(=O)NC(C)C)ccc1F [Ca-27, 2-[3-(4-Fluoro-3-methoxyphenyl)-1-{4-[2-(4-hydroxy4-methylpiperidin-1-yl)ethyl]phenyl}-5-oxo-1,5-dihydro-4H-1,2,4-triazol-4-yl]-N-(propan-2-yl)acetamide trifluoroacetate]
166 nM | COc1cc(-c2nn(-c3ncc(CCN4CCOCC4)cn3)c(=O)n2CC(=O)NC(C)C)ccc1F [Cd-1, 2-[3-(4-Fluoro-3-methoxyphenyl)-1-{5-[2-(morpholin-4-yl)ethyl]pyrimidin-2-yl}-5-oxo-1,5-dihydro-4H-1,2,4-triazol-4-yl]-N-(propan-2-yl)acetamide]
863 nM | COc1cc(-c2nn(-c3ccc(CN4CCN(C)CC4)cc3)c(=O)n2CC(=O)NC(C)C)ccc1F [Cd-4, 2-[3-(4-Fluoro-3-methoxyphenyl)-1-{4-[(4-methylpiperazin-1-yl)methyl]phenyl}-5-oxo-1,5-dihydro-4H-1,2,4-triazol-4-yl]-N-(propan-2-yl)acetamide]
17 nM | CC(C)NC(=O)Cn1c(-c2ccc(F)c(Cl)c2)nn(-c2ccc(CCN3CCCCC3)cc2)c1=O [Da-1, 2-[3-(3-Chloro-4-fluorophenyl)-5-oxo-1-{4-[2-(piperidin-1-yl)ethyl]phenyl}-1,5-dihydro-4H-1,2,4-triazol-4-yl]-N-(propan-2-yl)acetamide]
32 nM | CC(C)NC(=O)Cn1c(-c2ccc(F)c(Cl)c2)nn(-c2ccc(CCN3CC4(COC4)C3)cc2)c1=O [Da-3, 2-[3-(3-Chloro-4-fluorophenyl)-1-{4-[2-(2-oxa-6-azaspiro[3.3]hept-6-yl)ethyl]phenyl}-5-oxo-1,5-dihydro-4H-1,2,4-triazol-4-yl]-N-(propan-2-yl)acetamide]
12 nM | CC(C)NC(=O)Cn1c(-c2ccc(F)c(Cl)c2)nn(-c2ccc(CCN3CCCOCC3)cc2)c1=O [Da-4, 2-[3-(3-Chloro-4-fluorophenyl)-1-{4-[2-(1,4-oxazepan-4-yl)ethyl]phenyl}-5-oxo-1,5-dihydro-4H-1,2,4-triazol-4-yl]-N-(propan-2-yl)acetamide]
16 nM | CC(C)NC(=O)Cn1c(-c2ccc(F)c(Cl)c2)nn(-c2ccc(CCN3CCCCC3)cn2)c1=O [Db-1, 2-[3-(3-Chloro-4-fluorophenyl)-5-oxo-1-{5-[2-(piperidin-1-yl)ethyl]pyridin-2-yl}-1,5-dihydro-4H-1,2,4-triazol-4-yl]-N-(propan-2-yl)acetamide]
7.1 nM | CC(C)NC(=O)Cn1c(-c2ccc(F)c(Cl)c2)nn(-c2ccc(CCN3CCOCC3)cn2)c1=O [Db-2, 2-[3-(3-Chloro-4-fluorophenyl)-1-{5-[2-(morpholin-4-yl)ethyl]pyridin-2-yl}-5-oxo-1,5-dihydro-4H-1,2,4-triazol-4-yl]-N-(propan-2-yl)acetamide]
10 nM | CC(C)NC(=O)Cn1c(-c2ccc(F)c(Cl)c2)nn(-c2ccc(CCN3CC4(COC4)C3)cn2)c1=O [Db-3, 2-[3-(3-Chloro-4-fluorophenyl)-1-{5-[2-(2-oxa-6-azaspiro[3.3]hept-6-yl)ethyl]pyridin-2-yl}-5-oxo-1,5-dihydro-4H-1,2,4-triazol-4-yl]-N-(propan-2-yl)acetamide]
48 nM | CC(C)NC(=O)Cn1c(-c2cccc(C#N)c2)nn(-c2ccc(CCN3CCOCC3)cc2)c1=O [Ea-2, 2-[3-(3-Cyanophenyl)-1-{4-[2-(morpholin-4-yl)ethyl]phenyl}-5-oxo-1,5-dihydro-4H-1,2,4-triazol-4-yl]-N-(propan-2-yl)acetamide]
46 nM | CC(C)NC(=O)Cn1c(-c2cccc(F)c2)nn(-c2ccc(CCN3CCOCC3)cc2)c1=O [Fa-1, 2-[3-(3-Fluorophenyl)-1-{4-[2-(morpholin-4-yl)ethyl]phenyl}-5-oxo-1,5-dihydro-4H-1,2,4-triazol-4-yl]-N-(propan-2-yl)acetamide]

Structure (SMILES) | IC50
COc1cc(-c2nn(-c3ccc(CCN4C5CCC4CC(O)C5)cn3)c(=O)n2CC(=O)NC(C)C)ccc1F (centres unmarked) [Cb-4, 2-[3-(4-Fluoro-3-methoxyphenyl)-1-{5-[2-(3-hydroxy-8-azabicyclo[3.2.1]oct-8-yl)ethyl]pyridin-2-yl}-5-oxo-1,5-dihydro-4H-1,2,4-triazol-4-yl]-N-(propan-2-yl)acetamide] | 8.6 nM
COc1cc(-c2nn(-c3ccc(CCN4C5CCC4COC5)cn3)c(=O)n2CC(=O)NC(C)C)ccc1F [Cb-5, 2-[3-(4-Fluoro-3-methoxyphenyl)-1-{5-[2-(3-oxa-8-azabicyclo[3.2.1]oct-8-yl)ethyl]pyridin-2-yl}-5-oxo-1,5-dihydro-4H-1,2,4-triazol-4-yl]-N-(propan-2-yl)acetamide] | 16 nM
COc1cc(-c2nn(-c3ccc(CC(C)N4C5CCC4COC5)cc3)c(=O)n2CC(=O)NC(C)C)ccc1F (centres unmarked) [Cd-2, 2-[3-(4-Fluoro-3-methoxyphenyl)-1-{4-[2-(3-oxa-8-azabicyclo[3.2.1]oct-8-yl)propyl]phenyl}-5-oxo-1,5-dihydro-4H-1,2,4-triazol-4-yl]-N-(propan-2-yl)acetamide] | 0.51 nM
COc1cc(-c2nn(-c3ccc(CC(C)N4C5CCC4COC5)cn3)c(=O)n2CC(=O)NC(C)C)ccc1F (centres unmarked) [Cd-3, 2-[3-(4-Fluoro-3-methoxyphenyl)-1-{5-[2-(3-oxa-8-azabicyclo[3.2.1]oct-8-yl)propyl]pyridin-2-yl}-5-oxo-1,5-dihydro-4H-1,2,4-triazol-4-yl]-N-(propan-2-yl)acetamide] | 0.55 nM
CC(C)NC(=O)Cn1c(-c2ccc(F)c(Cl)c2)nn(-c2ccc(CCN3C4CCC3COC4)cn2)c1=O [Db-4, 2-[3-(3-Chloro-4-fluorophenyl)-1-{5-[2-(3-oxa-8-azabicyclo[3.2.1]oct-8-yl)ethyl]pyridin-2-yl}-5-oxo-1,5-dihydro-4H-1,2,4-triazol-4-yl]-N-(propan-2-yl)acetamide] | 2.9 nM
